From the CheMixHub ionic liquid set

Assay: xn = mol fraction of the nth substance listed

CN1CCCC1=O + CCCC[n+]1ccn(C)c1.N#C[S-]
101 kPa, x2 = 0
Details | viscosity [mPa·s]
288.15 K | 2.133
298.15 K | 1.791
308.15 K | 1.549
318.15 K | 1.285

CN1CCCC1=O + CCCCCCCCn1cc[n+](C)c1.N#C[S-]
101 kPa, x2 = 0
Details | viscosity [mPa·s]
288.15 K | 2.127
298.15 K | 1.785
308.15 K | 1.543
318.15 K | 1.306

CN1CCCC1=O + CC[n+]1ccn(C)c1.COS(=O)(=O)[O-]
Details | viscosity [mPa·s]
313.15 K, 101 kPa, x1 = 1 | 1.31

CCCC[n+]1ccn(C)c1.F[P-](F)(F)(F)(F)F + c1ccccc1
Details | viscosity [mPa·s]
313.2 K, 100 kPa, x2 = 0.6008 | 7.7

CCCC[n+]1cccc(C)c1.O=S(=O)([N-]S(=O)(=O)C(F)(F)F)C(F)(F)F + CCO
298.15 K, 101.3 kPa
Details | electrical conductivity [S/m]
x2 = 0 | 0.273
x2 = 0.4364 | 0.642
x2 = 0.6597 | 0.93
x2 = 0.8246 | 1.07

CC#N + CCCC[n+]1ccn(C)c1.F[B-](F)(F)F
Details | electrical conductivity, 298.15 K [S/m] | viscosity, 298.15 K [mPa·s] | viscosity, 333.15 K [mPa·s]
100 kPa, x2 = 0 | 0.0002 | 0.37 | –
101 kPa, x1 = 1 | – | – | 0.257

CC[N+](CC)(CC)CC.F[B-](F)(F)F + CC1COC(=O)O1
101 kPa
Details | viscosity [mPa·s]
283.15 K, x1 = 0.001044 | 3.574
283.15 K, x1 = 0.001302 | 3.581
283.15 K, x1 = 0.001888 | 3.591
283.15 K, x1 = 0.003069 | 3.625
283.15 K, x1 = 0.003925 | 3.642
283.15 K, x1 = 0.005619 | 3.663
283.15 K, x1 = 0.007445 | 3.702
283.15 K, x1 = 0.009039 | 3.739
283.15 K, x1 = 0.01054 | 3.769
283.15 K, x1 = 0.01391 | 3.835
283.15 K, x2 = 0.9206 | 5.439
283.15 K, x2 = 0.9274 | 5.243
283.15 K, x2 = 0.9419 | 4.842
283.15 K, x2 = 0.9434 | 4.813
283.15 K, x2 = 0.9551 | 4.515
283.15 K, x2 = 0.9624 | 4.356
283.15 K, x2 = 0.9701 | 4.177
298.15 K, x1 = 0.001682 | 2.557
298.15 K, x1 = 0.003455 | 2.58
298.15 K, x1 = 0.004813 | 2.598
298.15 K, x1 = 0.006017 | 2.613
298.15 K, x1 = 0.007139 | 2.628
298.15 K, x1 = 0.008167 | 2.641
298.15 K, x1 = 0.009079 | 2.657
298.15 K, x1 = 0.01102 | 2.68
298.15 K, x1 = 0.01252 | 2.701
298.15 K, x1 = 0.01813 | 2.774
298.15 K, x2 = 0.9206 | 3.716
298.15 K, x2 = 0.9283 | 3.58
298.15 K, x2 = 0.9528 | 3.189
298.15 K, x2 = 0.971 | 2.924
308.15 K, x1 = 0.001119 | 2.101
308.15 K, x1 = 0.003553 | 2.127
308.15 K, x1 = 0.005754 | 2.15
308.15 K, x1 = 0.006805 | 2.161
308.15 K, x1 = 0.007615 | 2.17
308.15 K, x1 = 0.008953 | 2.182
308.15 K, x1 = 0.01146 | 2.209
308.15 K, x1 = 0.01324 | 2.228
308.15 K, x2 = 0.9174 | 3.043
308.15 K, x2 = 0.9215 | 2.977
308.15 K, x2 = 0.9382 | 2.775
308.15 K, x2 = 0.9417 | 2.728
308.15 K, x2 = 0.9539 | 2.586
308.15 K, x2 = 0.9711 | 2.396
308.15 K, x2 = 0.9798 | 2.303
313.15 K, x1 = 0.00395 | 1.953
313.15 K, x1 = 0.004693 | 1.963
313.15 K, x1 = 0.005951 | 1.972
313.15 K, x1 = 0.00774 | 1.988
313.15 K, x1 = 0.009433 | 2.003
313.15 K, x1 = 0.01082 | 2.018
313.15 K, x2 = 0.9272 | 2.638
313.15 K, x2 = 0.9371 | 2.531
313.15 K, x2 = 0.9469 | 2.429
313.15 K, x2 = 0.9574 | 2.325
313.15 K, x2 = 0.9712 | 2.185
313.15 K, x2 = 0.9797 | 2.106

CN1CCCC1=O + CCCC[n+]1ccn(C)c1.F[B-](F)(F)F
101 kPa, x1 = 1
Details | viscosity [mPa·s]
298.15 K | 1.66
303.15 K | 1.49
308.15 K | 1.39
313.15 K | 1.31
323.15 K | 1.174

CCCC[n+]1ccn(C)c1.O=S(=O)([N-]S(=O)(=O)C(F)(F)F)C(F)(F)F + N
Details | viscosity [mPa·s]
313.2 K, 101 kPa, x1 = 1 | 27.3

CN(C)C=O + CCCCCCCCn1cc[n+](C)c1.O=S(=O)([N-]S(=O)(=O)C(F)(F)F)C(F)(F)F
101 kPa, x2 = 0
Details | viscosity [mPa·s]
293.15 K | 0.881
303.15 K | 0.771
313.15 K | 0.668
323.15 K | 0.605
333.15 K | 0.553
353.15 K | 0.479
363.15 K | 0.447

CCOC(C)=O + CCCC[n+]1ccn(C)c1.O=S(=O)([N-]S(=O)(=O)C(F)(F)F)C(F)(F)F
298.15 K, 101 kPa
Details | viscosity [mPa·s]
x1 = 0.092 | 40
x1 = 0.2303 | 26.5

CCCC[n+]1ccn(C)c1.O=S(=O)([N-]S(=O)(=O)C(F)(F)F)C(F)(F)F + O
Details | electrical conductivity [S/m] | viscosity [mPa·s]
298 K, 101 kPa, x2 = 0 | – | 50.4
298 K, 101 kPa, x2 = 0.0227 | 0.427 | –
298 K, 101 kPa, x2 = 0.0272 | 0.442 | –
298 K, 101 kPa, x2 = 0.0915 | 0.472 | –
298 K, 101 kPa, x2 = 0.1024 | 0.498 | –
333.15 K, 100 kPa, x2 = 0.257 | – | 10.68
343.15 K, 100 kPa, x2 = 0.257 | – | 8.479
353.15 K, 100 kPa, x2 = 0.257 | – | 6.903

CCCC[n+]1ccn(C)c1.O=S(=O)([N-]S(=O)(=O)C(F)(F)F)C(F)(F)F + O=C1CCCCO1
100 kPa, frequency 0.01 MHz, x1 = 1
Details | electrical conductivity [S/m]
298.15 K | 0.4
318.15 K | 0.733

CCCCn1cc[n+](CCOCC[n+]2ccn(CCCC)c2)c1.O=S(=O)([N-]S(=O)(=O)C(F)(F)F)C(F)(F)F.O=S(=O)([N-]S(=O)(=O)C(F)(F)F)C(F)(F)F + CC[n+]1ccn(C)c1.N#C[N-]C#N + O=S(=O)([N-]S(=O)(=O)C(F)(F)F)C(F)(F)F.[Li+]
100 kPa, x1 = 0.1503, x2 = 0.7472
Details | electrical conductivity [S/m]
298 K | 0.512
303 K | 0.654
313 K | 0.829
323 K | 1.11
333 K | 1.45
343 K | 1.84

CCCC[n+]1ccn(C)c1.F[P-](F)(F)(F)(F)F + OCC(F)(F)F
101 kPa, x2 = 0
Details | viscosity [mPa·s]
278.15 K | 1165
283.15 K | 774
288.15 K | 533
293.15 K | 378
298.15 K | 274
303.15 K | 203
308.15 K | 154
313.15 K | 119
318.15 K | 93.5
323.15 K | 74.6
328.15 K | 60.4
333.15 K | 49.5

CC#N + CCCC[n+]1ccn(C)c1.[Cl-]
Details | viscosity [mPa·s]
308.15 K, 101 kPa, x1 = 1 | 0.31

CC#N + CCCC[N+]1(C)CCCC1.O=S(=O)([O-])C(F)(F)F
101 kPa, x1 = 1
Details | viscosity [mPa·s]
288.15 K | 0.371
293.15 K | 0.355
298.15 K | 0.337

CCCC[n+]1ccn(C)c1.F[P-](F)(F)(F)(F)F + c1ccncc1
298.15 K, 101 kPa, x2 = 0.4915
Details | electrical conductivity [S/m] | viscosity [mPa·s]
– | 0.819 | 21.8

CCCCC[P+](CC)(CC)CC.O=S(=O)([N-]S(=O)(=O)C(F)(F)F)C(F)(F)F + O=S(=O)([N-]S(=O)(=O)C(F)(F)F)C(F)(F)F.[Li+]
101.33 kPa
Details | electrical conductivity [S/m] | viscosity [mPa·s]
300.3 K, x2 = 0.39 | – | 1100
324.2 K, x2 = 0.39 | 0.081 | 200
330.2 K, x2 = 0.39 | 0.11 | 150
336.3 K, x2 = 0.25 | 0.37 | 42
341.2 K, x2 = 0.25 | – | 34
348.2 K, x2 = 0.25 | 0.52 | 27
361.2 K, x2 = 0.39 | – | 37
361.3 K, x2 = 0.39 | 0.36 | –

CCCC[n+]1ccn(C)c1.O=S(=O)([N-]S(=O)(=O)C(F)(F)F)C(F)(F)F + CCCCOC(C)=O
298.15 K, 100 kPa, x2 = 0
Details | electrical conductivity [S/m] | viscosity [mPa·s]
– | 0.39 | 50.2

CC[n+]1ccn(C)c1.O=S(=O)([O-])O + OCC(O)CO
100 kPa, x1 = 0.33
Details | viscosity [mPa·s]
298.15 K | 320
303.15 K | 232
308.15 K | 168
313.15 K | 127
318.15 K | 99
323.15 K | 78
